Results taken from patent US9434711B2 (Janssen Pharmaceutica, NV, priority 2007, dated 2016).
Like-named read-outs stand apart in the source and are kept apart here.

Molecular target: canine TRPM8 (Canis lupus familiaris, UniProt Q1A7N1)
Assay: In Vitro Canine TRPM8 Functional Assay (Ca2+ fluorescence, icilin activation)
Type: cell-based
Conditions: for IC50: HEK293 cells stably expressing canine TRPM8, icilin activation, eight-point dose-response, read-out: IC50; for inhibition at 0.5 µM: compound at 0.5 μM, read-out: % Inh @ 0.5
In short: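 Canine TRPM8 stably expressed in HEK293; compound added 5 min before icilin challenge (~80% max response), with fluorescent Ca2+ signal tracked throughout.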

[1] = compound at 0.2 μM, canine TRPM8, icilin activation, read-out: % Inh @ 0.2
[2] = canine TRPM8, icilin activation

Chain of canine TRPM8 (Q1A7N1 1-1104): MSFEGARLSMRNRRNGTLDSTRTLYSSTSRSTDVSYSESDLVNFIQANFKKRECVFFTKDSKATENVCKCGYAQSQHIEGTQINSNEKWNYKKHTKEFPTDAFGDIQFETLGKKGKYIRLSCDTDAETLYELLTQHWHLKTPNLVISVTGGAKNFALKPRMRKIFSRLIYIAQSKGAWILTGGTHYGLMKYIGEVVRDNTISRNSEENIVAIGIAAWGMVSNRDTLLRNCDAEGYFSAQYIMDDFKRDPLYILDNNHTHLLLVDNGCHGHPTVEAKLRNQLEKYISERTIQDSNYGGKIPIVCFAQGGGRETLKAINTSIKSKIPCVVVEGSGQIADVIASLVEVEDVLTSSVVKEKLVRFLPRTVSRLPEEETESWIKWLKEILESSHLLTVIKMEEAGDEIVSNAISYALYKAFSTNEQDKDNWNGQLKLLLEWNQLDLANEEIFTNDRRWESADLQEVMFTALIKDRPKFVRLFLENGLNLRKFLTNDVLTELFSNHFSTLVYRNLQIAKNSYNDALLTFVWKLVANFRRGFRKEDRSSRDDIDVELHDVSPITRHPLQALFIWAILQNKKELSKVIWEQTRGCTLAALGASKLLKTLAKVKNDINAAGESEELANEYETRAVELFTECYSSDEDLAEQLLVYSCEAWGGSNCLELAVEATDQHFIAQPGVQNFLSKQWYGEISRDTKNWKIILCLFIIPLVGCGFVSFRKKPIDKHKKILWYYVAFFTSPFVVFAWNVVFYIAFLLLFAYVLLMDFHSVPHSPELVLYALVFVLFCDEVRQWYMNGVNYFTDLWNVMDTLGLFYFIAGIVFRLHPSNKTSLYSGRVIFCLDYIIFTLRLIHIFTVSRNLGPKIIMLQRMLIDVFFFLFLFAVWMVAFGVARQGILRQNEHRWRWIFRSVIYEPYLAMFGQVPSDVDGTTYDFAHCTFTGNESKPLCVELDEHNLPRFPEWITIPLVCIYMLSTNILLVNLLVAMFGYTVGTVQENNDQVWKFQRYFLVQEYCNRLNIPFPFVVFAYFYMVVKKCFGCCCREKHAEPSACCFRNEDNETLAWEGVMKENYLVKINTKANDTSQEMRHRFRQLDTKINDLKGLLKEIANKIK

O=S(=O)(c1ccccc1)N(CC12CC3CC(CC(C3)C1)C2)c1sc2ccccc2c1Br [Compound 249, N-(Adamant-1-ylmethyl)-N-(3-bromo-benzo[b]thiophen-2-yl)-benzenesulfonamide]
IC50: 0.9 nM
inhibition at 0.2 µM [1]: 97%

O=S(=O)(c1ccccc1)N(CCC(F)(F)F)c1sc2ccccc2c1Br [Compound 250, N-(3-Bromo-benzo[b]thiophen-2-yl)-N-(3,3,3-trifluoro-propyl)-benzenesulfonamide]
IC50: 12.7 nM
inhibition at 0.2 µM [1]: 102%

CC#CCCN(c1sc2ccccc2c1Br)S(=O)(=O)c1ccccc1 [Compound 251, N-(3-Bromo-benzo[b]thiophen-2-yl)-N-(pent-3-ynyl)-benzenesulfonamide]
IC50: 38.7 nM
inhibition at 0.2 µM [1]: 95%

COCCN(c1sc2ccccc2c1Br)S(=O)(=O)c1ccccc1 [Compound 252, N-(3-Bromo-benzo[b]thiophen-2-yl)-N-(2-methoxy-ethyl)-benzenesulfonamide]
IC50: 17.1 nM
inhibition at 0.2 µM [1]: 102%

CC(=O)CCCN(c1sc2ccccc2c1Br)S(=O)(=O)c1ccccc1 [Compound 253, N-(3-Bromo-benzo[b]thiophen-2-yl)-N-(4-oxo-pentyl)-benzenesulfonamide]
IC50: 27.3 nM
inhibition at 0.2 µM [1]: 101%

COP(=O)(CCN(c1sc2ccccc2c1Br)S(=O)(=O)c1ccccc1)OC [Compound 254, N-(3-Bromo-benzo[b]thiophen-2-yl)-N-(dimethoxyphosphinoyl-ethyl)-benzenesulfonamide]
IC50: 125 nM
inhibition at 0.2 µM (read-out: % Inh @ 0.2 (μM)): 58%

O=S(=O)(c1ccccc1)N(CC1CC1)c1sc2ccccc2c1Br [Compound 255, N-(3-Bromo-benzo[b]thiophen-2-yl)-N-(cyclopropylmethyl)-benzenesulfonamide]
IC50: 86 nM
inhibition at 0.2 µM [1]: 89%

O=S(=O)(c1ccccc1)N(CCN1CCCCC1)c1sc2ccccc2c1Br [Compound 256, N-(3-Bromo-benzo[b]thiophen-2-yl)-N-(2-piperidin-1-yl-ethyl)-benzenesulfonamide]
IC50: 30 nM
inhibition at 0.2 µM [1]: 87%

O=C1CCC(=O)N1CCN(c1sc2ccccc2c1Br)S(=O)(=O)c1ccccc1 [Compound 257, N-(3-Bromo-benzo[b]thiophen-2-yl)-N-[2-(2,5-dioxo-pyrrolidin-1-yl)-ethyl]-benzenesulfonamide]
inhibition at 0.2 µM [1]: 62%

O=C1CC[C@H](CN(c2sc3ccccc3c2Br)S(=O)(=O)c2ccccc2)N1 [Compound 258, (R)—N-(3-Bromo-benzo[b]thiophen-2-yl)-N-(5-oxo-pyrrolidin-2-ylmethyl)-benzenesulfonamide]
inhibition at 0.2 µM [1]: 25%

O=C1CC[C@@H](CN(c2sc3ccccc3c2Br)S(=O)(=O)c2ccccc2)N1 [Compound 259, (S)—N-(3-Bromo-benzo[b]thiophen-2-yl)-N-(5-oxo-pyrrolidin-2-ylmethyl)-benzenesulfonamide]
inhibition at 0.2 µM [1]: 24%

CSCCN(c1sc2ccccc2c1Br)S(=O)(=O)c1ccccc1 [Compound 260, N-(3-Bromo-benzo[b]thiophen-2-yl)-N-(2-methylsulfanyl-ethyl)-benzenesulfonamide]
IC50: 50 nM
inhibition at 0.2 µM [1]: 86%

CCCCN(c1sc2ccccc2c1Br)S(=O)(=O)CC [Compound 261, N-(3-Bromo-benzo[b]thiophen-2-yl)-N-(butyl)-ethanesulfonamide]
IC50: 12.6 nM
inhibition at 0.2 µM [1]: 97%

CCS(=O)(=O)N(CC1CC1)c1sc2ccccc2c1Br [Compound 262, N-(3-Bromo-benzo[b]thiophen-2-yl)-N-(cyclopropylmethyl)-ethanesulfonamide]
IC50: 67 nM
inhibition at 0.2 µM [1]: 94%

CCS(=O)(=O)N(CC(F)F)c1sc2ccccc2c1Br [Compound 263, N-(3-Bromo-benzo[b]thiophen-2-yl)-N-(2,2-difluoro-ethyl)-ethanesulfonamide]
IC50: 203 nM
inhibition at 0.2 µM [1]: 52%

CCS(=O)(=O)N(CCOC(C)(C)C)c1sc2ccccc2c1Br [Compound 264, N-(3-Bromo-benzo[b]thiophen-2-yl)-N-(2-tert-butoxy-ethyl)-ethanesulfonamide]
IC50: 34.1 nM
inhibition at 0.2 µM [1]: 99%

CCCCN(c1sc2ccccc2c1Br)S(=O)(=O)N(C)C [Compound 265, N-(3-Bromo-benzo[b]thiophen-2-yl)-N-(butyl)-N′,N′-dimethylsulfamide]
IC50: 22 nM
inhibition at 0.2 µM [1]: 90%

CN(C)S(=O)(=O)N(CC1CC1)c1sc2ccccc2c1Br [Compound 266, N-(3-Bromo-benzo[b]thiophen-2-yl)-N-(cyclopropylmethyl)-N′,N′-dimethylsulfamide]
IC50: 39 nM
inhibition at 0.2 µM [1]: 86%

CN(C)S(=O)(=O)N(CCOC(C)(C)C)c1sc2ccccc2c1Br [Compound 267, N-(3-Bromo-benzo[b]thiophen-2-yl)-N-(2-tert-butoxy-ethyl)-N′,N′-dimethylsulfamide]
IC50: 10 nM
inhibition at 0.2 µM [1]: 96%

CN(C)S(=O)(=O)N(CC(F)F)c1sc2ccccc2c1Br [Compound 268, N-(3-Bromo-benzo[b]thiophen-2-yl)-N-(2,2-difluoro-ethyl)-N′,N′-dimethylsulfamide]
inhibition at 0.2 µM [1]: 67%

CN(C)S(=O)(=O)N(CCC(F)(F)F)c1sc2ccccc2c1Br [Compound 269, N-(3-Bromo-benzo[b]thiophen-2-yl)-N-(3,3,3-trifluoropropyl)-N′,N′-dimethylsulfamide]
IC50: 16 nM
inhibition at 0.2 µM [1]: 94%

NCCN(c1sc2ccccc2c1Cl)S(=O)(=O)c1ccccc1 [Compound 270, N-(2-Amino-ethyl)-N-(3-chloro-benzo[b]thiophen-2-yl)-benzenesulfonamide]
IC50: 338 nM
inhibition at 0.5 µM [2]: 75%

COCCN(c1sc2ccccc2c1Br)S(=O)(=O)c1ccc(C(=O)O)cc1 [Compound 274, N-(3-Bromo-benzo[b]thiophen-2-yl)-N-(2-methoxyethyl)-4-carboxy-benzenesulfonamide]
IC50: 36 nM
inhibition at 0.2 µM [1]: 94%

CC(C)(C)OCCN(c1sc2ccccc2c1Br)S(=O)(=O)c1ccc(C(=O)O)cc1 [Compound 275, N-(3-Bromo-benzo[b]thiophen-2-yl)-N-(2-tert-butoxy-ethyl)-4-carboxy-benzenesulfonamide]
IC50: 3 nM
inhibition at 0.2 µM [1]: 97%

O=C(O)c1ccc(S(=O)(=O)N(CC(F)F)c2sc3ccccc3c2Br)cc1 [Compound 276, N-(3-Bromo-benzo[b]thiophen-2-yl)-N-(2,2-difluoro-ethyl)-4-carboxy-benzenesulfonamide]
IC50: 71 nM
inhibition at 0.2 µM [1]: 76%

O=C(O)c1ccc(S(=O)(=O)N(CCN2CCOCC2)c2sc3ccccc3c2Br)cc1 [Compound 277, N-(3-Bromo-benzo[b]thiophen-2-yl)-N-(2-morpholin-4-yl-ethyl)-4-carboxy-benzenesulfonamide]
IC50: 39 nM
inhibition at 0.2 µM [1]: 91%

O=C(O)c1ccc(S(=O)(=O)N(CC23CC4CC(CC(C4)C2)C3)c2sc3ccccc3c2Br)cc1 [Compound 278, N-(3-Bromo-benzo[b]thiophen-2-yl)-N-(adamant-1-yl-methyl)-4-carboxy-benzenesulfonamide]
IC50: 1 nM
inhibition at 0.2 µM [1]: 98%

O=C(O)c1ccc(S(=O)(=O)N(CC2CCCCC2)c2sc3ccccc3c2Br)cc1 [Compound 279, N-(3-Bromo-benzo[b]thiophen-2-yl)-N-(cyclohexylmethyl)-4-carboxy-benzenesulfonamide]
IC50: 1.3 nM
inhibition at 0.2 µM [1]: 97%

CCCCN(c1sc2ccccc2c1C(C)O)S(=O)(=O)CC (centres unmarked) [Compound 280, N-(Butyl)-N-[3-(1-hydroxy-ethyl)-benzo[b]thiophen-2-yl]-ethanesulfonamide]
inhibition at 0.2 µM [1]: 87%

CCS(=O)(=O)N(CC1CC1)c1sc2ccccc2c1C(C)O (centres unmarked) [Compound 281, N-(Cyclopropylmethyl)-N-(3-(1-hydroxyethyl)benzo[b]thiophen-2-yl)-ethanesulfonamide]
inhibition at 0.2 µM [1]: 62%

CCS(=O)(=O)N(CCC(F)(F)F)c1sc2ccccc2c1C(C)O (centres unmarked) [Compound 282, N-(3-(1-Hydroxyethyl)benzo[b]thiophen-2-yl)-N-(3,3,3-trifluoro-propyl)-ethanesulfonamide]
IC50: 70 nM
inhibition at 0.2 µM [1]: 86%

CCS(=O)(=O)N(CCOC(C)(C)C)c1sc2ccccc2c1C(C)O (centres unmarked) [Compound 283, N-(2-tert-Butoxyethyl)-N-(3-(1-hydroxyethyl)benzo[b]thiophen-2-yl)-ethanesulfonamide]
IC50: 92 nM
inhibition at 0.2 µM [1]: 82%

Cc1c(N(Cc2ccc(F)c(F)c2)S(=O)(=O)c2ccc(O)cc2)sc2ccccc12 [Compound 285, N-(3,4-Difluoro-benzyl)-N-(3-methyl-benzo[b]thiophen-2-yl)-4-hydroxy-benzenesulfonamide]
IC50: 2.5 nM
inhibition at 0.5 µM [2]: 100%

Cc1c(N(Cc2ccc(F)c(F)c2)S(=O)(=O)c2cccc(O)c2)sc2ccccc12 [Compound 286, N-(3,4-Difluoro-benzyl)-N-(3-methyl-benzo[b]thiophen-2-yl)-3-hydroxy-benzenesulfonamide]
IC50: 7 nM
inhibition at 0.5 µM [2]: 99%

O=S(=O)(c1ccccc1)N(Cc1cccc(O)c1)c1cc2ccccc2s1 [Compound 287, N-(Benzo[b]thiophen-2-yl)-N-(3-hydroxy-benzyl)-benzenesulfonamide]
IC50: 29.8 nM
inhibition at 0.5 µM [2]: 96%

O=S(=O)(c1cccc(O)c1)N(Cc1ccc(F)c(C(F)(F)F)c1)c1sc2ccccc2c1Cl [Compound 288, N-(3-Chloro-benzo[b]thiophen-2-yl)-N-(4-fluoro-3-trifluoromethyl-benzyl)-3-hydroxy-benzenesulfonamide]
IC50: 20 nM
inhibition at 0.2 µM [1]: 90%

O=S(=O)(c1ccc(O)cc1)N(Cc1ccc(F)c(C(F)(F)F)c1)c1sc2ccccc2c1Cl [Compound 289, N-(3-Chloro-benzo[b]thiophen-2-yl)-N-(4-fluoro-3-trifluoromethyl-benzyl)-4-hydroxy-benzenesulfonamide]
IC50: 27 nM
inhibition at 0.2 µM [1]: 92%
